Here are results for 3 molecules from patent US12208163B2, “Nanostructured lipid gel, method for preparation and use” (CONSEJO SUPERIOR DE INVESTIGACIONES CIENTÍFICAS, priority 2018, dated 2025).

Data set [1] has as its system chorioallantoic membrane of a chicken egg. In words: Eye irritation assay (HET-CAM test). Conditions: for OII (Ocular Irritation Index): calculated from H, V and C times; for Classification: interpretation of OII by Table 2; for Clotting time / Haemorrhage time / Vasoconstriction time: time when change appears, observed for 5 minutes. The text has this: With the aim of proposing potential uses of the gel in ocular applications, the possible eye irritation of this material was studied by means of a HET-CAM test. The gel formed from HSPC and OA with a molar ratio of 3:1 and a total lipid concentration of 5% was directly applied to the chorioallantoic membrane of a chicken egg due to its similarity to the human cornea. The appearance of vascular lesion or clotting in response to a compound is the basis for using this technique as an indicator of the probability that a substance may harm the mucous membranes, especially the cornea of the human eye, in vitro. In order to execute the method, the egg shell is carefully removed, moistening the membrane with a NaCl solution at 37° C. Next, the NaCl is removed and the white membrane is removed without harming any blood vessel. Next, the gel sample is applied and the appearance of haemorrhage (H), vasoconstriction (V) and/or clotting (C) can be observed for 5 minutes. Lastly, the Ocular Irritation Index (OII) is estimated using the following formula: [formula] H, V and C are the time in seconds when this change appears. If there is no alteration, they are equal to 300. The result obtained from the formula can be interpreted on the basis of Table 2: [table]

The nature of data set [2]: in vitro cutaneous permeation assay on pig skin, fluorescence microscopy. It counts as in vitro ADME. How it is done: In order to evaluate the potential of these gels as cutaneous application systems, an in vitro permeation assay was conducted on pig skin and observations were made using fluorescence microscopy. Two gels were formed which were applied to the skin surface. One of them was formed by incorporating a red fluorescent probe (Rhodamine B) in order to observe in which areas of the skin the gel-forming phospholipids are retained. In the other gel, a fluorescent green probe (fluorescein) was added in the aqueous phase with the aim of simulating a possible water-soluble active ingredient incorporated to the gel. The gel was gently applied to the skin and left to permeate overnight at 37° C. in a humid environment. Next, the skin was cut into sections and the cells marked in blue in order to distinguish the different skin layers.

Take `CCCCCCCCCCCCOS(=O)(=O)[O-].[Na+]` [1% SDS, SDS]: in data set [1], the “OII (Ocular Irritation Index)” value was 3.23, the Classification result is on record as “Mildly”, the “Clotting time” value amounted to 0 s and the “Haemorrhage time” value stood at 110 s. Further, the “Vasoconstriction time” value in data set [1] amounted to 0 s.
As for `[Na+].[OH-]` [NaOH], in data set [1], the “OII (Ocular Irritation Index)” value was 17.79, the Classification entry is given as “Irritating (9-21)”, the “Clotting time” value was 20 s and the “Haemorrhage time” value is recorded as 28 s. The “Vasoconstriction time” value in data set [1] was determined as 13 s.
In the case of `O=C1OC2(c3ccc(O)cc3Oc3cc(O)ccc32)c2ccccc21` [fluorescein], in data set [2] (control, aqueous solution with fluorescein without incorporating the gel), the “skin permeation of fluorescein from aqueous solution” value is recorded as “only slightly incorporated in the stratum corneum”. The “skin permeation of fluorescein dissolved in the aqueous phase of the gel” value in data set [2] (fluorescein in gel, overnight at 37° C., FIG. 6) was “capable of permeating the skin, covering the entire stratum corneum and epidermis”.
